Data from patent US8846951B2 (AbbVie Inc., priority 2009, dated 2014).
Entries after “also recorded” stand apart in the source; their conditions may differ.

Tests used:
[1] = target: T1, human serotonin 5-HT2c receptor (Homo sapiens, UniProt P28335); assay: Human 5-HT2C receptor radioligand binding assay (agonist site, [125I]DOI); settings: 5-HT2c agonist site; transfected CHO cell membranes; 0.2 nM [125I](±)DOI
T1 construct: expressed in transfected cells; host or cells: CHO cells (membrane homogenates)
T1 sequence (P28335 33-458): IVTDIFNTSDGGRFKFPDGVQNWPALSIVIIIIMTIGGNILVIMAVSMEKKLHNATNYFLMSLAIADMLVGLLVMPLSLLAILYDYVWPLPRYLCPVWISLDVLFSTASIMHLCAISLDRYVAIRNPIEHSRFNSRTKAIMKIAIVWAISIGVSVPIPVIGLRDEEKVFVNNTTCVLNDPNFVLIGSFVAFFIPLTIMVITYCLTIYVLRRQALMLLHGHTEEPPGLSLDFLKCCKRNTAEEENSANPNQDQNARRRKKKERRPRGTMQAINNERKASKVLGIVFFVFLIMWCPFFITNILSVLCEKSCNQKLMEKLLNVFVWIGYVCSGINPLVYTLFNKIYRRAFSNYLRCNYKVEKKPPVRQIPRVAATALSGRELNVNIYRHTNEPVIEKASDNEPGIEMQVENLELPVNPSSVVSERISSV
Method: (i) Human 5-HT2C Receptor Radioligand Binding Assay
Affinity of compounds for the agonist site of the […], receptor in transfected CHO cells was determined in a radioligand binding assay essentially as described by Bryant, H. U., et al., Life Sciences (1996) 59(15), 1259-1268.

h-5-HT6 receptor = target: T2, h-5-HT6 receptor (Homo sapiens, UniProt P50406); assay: Human 5-HT6 receptor radioligand binding assay (HEK293 membranes, [3H]-LSD); settings: HEK293 membranes expressing h-5-HT6 receptor, 1 nM [3H]-LSD; geometrical mean; read-out: Ki (5-HT6 Agonist Site Radioligand Binding)
T2 construct: expressed in transfected cells; host or cells: HEK293 cells (membranes)
T2 sequence (P50406 whole entry): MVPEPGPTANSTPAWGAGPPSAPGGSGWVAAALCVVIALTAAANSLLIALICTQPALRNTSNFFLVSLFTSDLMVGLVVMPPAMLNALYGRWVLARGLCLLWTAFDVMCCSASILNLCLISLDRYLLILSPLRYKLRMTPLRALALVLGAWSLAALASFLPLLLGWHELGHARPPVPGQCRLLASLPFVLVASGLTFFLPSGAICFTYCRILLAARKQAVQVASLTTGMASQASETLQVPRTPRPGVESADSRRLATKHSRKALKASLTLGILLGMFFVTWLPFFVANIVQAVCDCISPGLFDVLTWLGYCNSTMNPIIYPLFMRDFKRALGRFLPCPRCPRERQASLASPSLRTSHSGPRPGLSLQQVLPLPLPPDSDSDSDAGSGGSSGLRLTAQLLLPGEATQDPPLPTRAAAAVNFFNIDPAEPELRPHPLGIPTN
Method: (v) Human 5-HT6 Receptor Radioligand Binding Assay
Preparation of Membranes by Ultrasonic Treatment and Differential Centrifugation
Cells from stable clonal cell lines expressing the corresponding receptor (5-HT6) were washed with PBS (without Ca^++, Mg^++) and harvested in PBS with 0.02% EDTA. The cells were collected by centrifugation at 500 g for 10 minutes at 4° C., washed with PBS and centrifuged (500 g, 10 minutes at 4° C.). The pellets were stored at −80° C. until use. For membrane preparation, the thawed cell pellet was resuspended in ice-cold sucrose buffer (0.25 M sucrose, 10 mM HEPES (pH 7.4), 1 mM phenylmethylsulfonyl fluoride (PMSF) in DMSO, 5 μg/ml Pepstatin-A, 3 mM EDTA, 0.025% Bacitracin) and homogenized with a Branson Sonifier W-250 (Settings: Timer 4; Output Control 3; Duty Cycle constant; 2 to 3 cycles). Cell disruption was checked with the aid of a microscope. Remaining unbroken cells were pelleted at 1,000 g for 10 minutes at 4° C. The sucrose buffer supernatant was then centrifuged at 60,000 g for 1 hour at 4° C. (Beckman Ultracentrifuge XL 80). The pellet was resuspended in 30 mL of ice-cold Tris buffer (20 mM TRIS (pH 7.4), 5 μg/mL Pepstatin A, 0.1 mM PMSF, 3 mM EDTA) by pipetting through a 10 mL serological pipette and centrifuged for 1 hour at 4° C. at 60,000 g. A final resuspension was performed in a small volume of ice-cold Tris buffer (see above) by pressing through a serological pipette followed by ultrasonic treatment with a Branson Sonifier W-250 (Settings: Timer 1; Output Control 3; Duty Cycle constant; 1 cycle). Protein concentration was determined (BCA-Kit; Pierce) and aliquots stored at −80° C. or in liquid nitrogen for long-term storage.
Receptor Binding Experiments
All receptor binding experiments were carried out in the corresponding assay buffer in a total volume of 200 μL in the presence of various concentrations of test compound (10^−5 M to 10^−9 M, tenfold serial dilution, duplicate determinations). The assays were terminated by filtration on polyethylenimine (PEI 0.1% or 0.3%) presoaked Packard Unifilter Plates (GF/C or GF/B) with a Tomtec MachIII U 96 well-plate harvester. After the plates had been dried for 2 hours at 55° C. in a drying chamber scintillation cocktail (BetaPlate Scint; PerkinElmer) was added. Radioactivity was measured in a Microbeta Trilux two hours after the addition of the scintillation mixture.
5-HT6 Receptor Binding Assay
HEK293 cells stably expressing the h-5-HT6 receptor (NCBI Reference Sequence XM 001435) were cultured in RPMI1640 medium supplemented with 25 mM HEPES, 10% fetal calf serum and 1-2 mM glutamine. The membrane preparation was performed as described above. […] On the day of the assay, the membranes were thawed, diluted in assay buffer (50 mM Tris-HCl, 5 mM CaCl2, 0.1% ascorbic acid, 10 μM pargyline, pH 7.4) to a concentration of 8 μg protein/assay and homogenized by gentle vortexing. […] Non-specific binding was defined with 1 μM methiothepin. The binding reaction was carried out for 3.5 hours at room temperature. During the incubation, the plates were shaken on a plate shaker at 100 rpm and terminated by filtration on Packard Unifilter GF/C (0.1% PEI) plates, followed by 2 wash cycles with ice-cold 50 mM Tris-HCl, 5 mM CaCl2.
Data derived from liquid scintillation counting were analyzed by iterative non-linear regression analysis with the use of the Statistical Analysis System (SAS): a program similar to “LIGAND” as described by Munson and Rodbard (Anal. Biochem. 1980, 107, 220-239). Fitting was performed according to formulae described by Feldman (Anal. Biochem. 1972, 48, 317-338). IC50 and Ki values were expressed as geometrical mean.

5-HT6 receptor = target: T3, 5-HT6 receptor (Homo sapiens, UniProt P50406); assay: Human 5-HT6 receptor radioligand binding assay (transfected CHO cells, [3H]LSD); settings: transfected CHO cell membranes, 2 nM [3H]LSD
T3 construct: expressed in transfected cells; host or cells: CHO cells (membrane homogenates)
T3 sequence (P50406 whole entry): as above
Method: (vi) Human 5-HT6 Receptor Radioligand Binding Assay
Affinity of compounds for the agonist site of the 5-HT6 receptor in transfected CHO cells was determined in a radioligand binding assay essentially as described by Monsma, F. J., et al., Mol. Pharmacol. (1993) 43, 320-327. […] Nonspecific binding was determined in the presence of 100 μM serotonin. The amount of binding was determined by radioactivity quantitation with scintillation counter. IC50s were determined from a standard curve of the reference compound serotonin. Ki's as shown in Table 7 were derived from the IC50s in the standard method.

5HT2C receptors [2] = target: T4, 5HT2C receptors (Homo sapiens, UniProt P28335); assay: Human 5-HT2C functional assay in CHO-K1 cells (96-well, calcium, FLIPR); format: cell-based; set-up: expressed in transfected cells; settings: 5-HT2c agonist activity, CHO-K1 cells stably transfected
T4 sequence (P28335 33-458): T1 sequence (P28335 33-458)
Method: (iv) Human 5-HT2C Functional Assay in CHO-K1 Cells
Functional activity was determined by testing the effect of the compounds on intracellular calcium levels in CHO-K1 cells stably transfected with the human 5-HT2C receptor. Cells were seeded into 96-well plates at 60,000 cells/well and grown overnight in tissue culture medium (UltraCHO™ (Lonza), containing 1% dFCS, 250 μg/mL Zeocin, 400 μg/mL Geneticin) at 37° C. and 5% CO2. Growth medium was replaced by medium without dFCS for overnight incubation. Cells were loaded with a fluorescent calcium-sensitive dye in the presence of probenicid according to the manufacturer's protocol (FLIPR Ca4 Assay kit, Molecular Devices). Serial compound dilutions (final concentrations 10^−10 to 10^−5 M) were added to the cells and the maximum calcium response was determined using a FLIPR instrument (Molecular Devices). Concentration-response curves were fitted using a four-parameter logistic equation (GraphPad Prism). The concentration at which the compound exerts half its maximal effect is named the ‘effective concentration 50’ or ‘EC50’ and is listed in Table 5.

5HT2B receptors = target: T5, 5HT2B receptors (Homo sapiens, UniProt P41595); assay: Human 5-HT2B functional high throughput screening assay in CHO-K1 cells (calcium flux); format: cell-based
T5 construct: expressed in transfected cells; host or cells: CHO-K1 cells
T5 sequence (P41595 whole entry): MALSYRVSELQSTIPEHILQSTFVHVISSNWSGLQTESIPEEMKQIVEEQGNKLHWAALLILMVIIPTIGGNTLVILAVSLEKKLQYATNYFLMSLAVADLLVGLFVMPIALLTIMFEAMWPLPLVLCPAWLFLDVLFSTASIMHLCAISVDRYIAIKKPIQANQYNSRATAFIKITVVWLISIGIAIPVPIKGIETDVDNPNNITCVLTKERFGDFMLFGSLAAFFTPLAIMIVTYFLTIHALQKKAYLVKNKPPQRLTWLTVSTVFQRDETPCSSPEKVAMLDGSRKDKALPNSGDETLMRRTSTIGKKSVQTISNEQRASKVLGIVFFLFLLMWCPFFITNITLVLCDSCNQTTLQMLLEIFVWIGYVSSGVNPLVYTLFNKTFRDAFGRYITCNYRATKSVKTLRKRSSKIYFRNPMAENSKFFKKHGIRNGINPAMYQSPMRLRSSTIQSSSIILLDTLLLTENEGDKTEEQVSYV
Method in brief: (§1)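 FLIPR calcium readout, ex 480/em 530 nm, 25 °C, 3 min post-addition; agonist response normalized to serotonin, 4-parameter fit → EC50, Emax (% serotonin). Cells: frozen CHO-K1 stable lines, serum-free overnight, Ca4 dye + 2.5 mM probenecid, 60 min RT dark.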

[3] = tested on: AMP- or PCP-induced hyperactivity; assay: Psychostimulant (AMP or PCP)-induced hyperlocomotion in mice; format: in vivo, mouse; settings: test compound ip 30 min before d-amphetamine 2.0 mg/kg sc
From the text: (x) Assessment of Effects on Psychostimulant-Induced Hyperlocomotion in Mice
In both humans and experimental animals amphetamine (AMP) profoundly affects motor activity, sensorimotor function, sleep, attention, aggressive and sexual behaviors, learning and memory, operant behaviors, appetite and food intake. In addition, amphetamine induces psychotic reactions in normal individuals and exacerbates symptoms of schizophrenia in patients. In experimental animals several distinct behaviors are considered to be correlates of amphetamine psychosis. For example, amphetamine-induced hyperactivity in rodents is believed to model the psychotic symptoms of schizophrenia. Reversal of these behaviors is used to predict potential antipsychotic activity of drugs in pre-clinical studies.
In humans, phencyclidine (PCP) is known to produce a syndrome of behavioral effects which have many characteristics in common with schizophrenia. Therefore, antagonism of PCP effects might be evidence for antipsychotic efficacy of a compound.
Male NMRI mice (5-week old, Janvier, France) or C57BL/6J mice (6-week old, Janvier, France) were group housed and allowed ad-libitum access to food and water. A 12 hour light/dark cycle was imposed with lights-on period between 0530 and 1730 hours. All testing occurred between 700 and 1300 hours. All procedures were approved by Abbott Institutional Animal Care and Use Committee (USA) or Animal Welfare Officer (Germany) and were conducted in accordance with the National Institutes of Health Guide for Care and Use of Laboratory Animals guidelines and applicable national laws in the facilities accredited by the Association for the Assessment and Accreditation of Laboratory Animal Care.
On the day of experiment, animals were brought from the animal facility into the experimental room and were allowed to acclimatize for at least 30 minutes. Animals were then placed in the test cages for a habituation period of 60 minutes. The animals were then injected ip with the test compound and returned to the test cage. 30 Minutes later the mice were injected with d-amphetamine (2.0 mg/kg, AMP, Sigma, #A5880, sc) or phencyclidine (2.0 mg/kg, PCP, Sigma, #P3029, sc) Sigma, and returned to the test cages for 90 minutes. Each treatment group consisted of 8-10 animals. The data was acquired by Cage rack Photobeam system (SDI, San Diego Instruments, CA). The analyzed data were: fine movements, ambulations and total movements (fine+ambulations). Data was subjected to one- or two-way distribution-free ANOVA followed by Dunnett's and Tukey's post hoc tests.

[4] = tested on: conditioned avoidance response (CAR) behavior; assay: Conditioned avoidance responding in rats; format: in vivo, rat; settings: male Wistar rats
Method: The fact that antipsychotics have the unique ability to selectively suppress CAR behavior, made the CAR test a useful tool for the screening of new, potentially antipsychotic compounds. […] Animals Male Wistar rats (9-11 weeks old, Charles River, Germany) were pair-housed and allowed ad-libitum access to food and water. A 12-hour light/dark cycle was imposed with lights-on period between 0530 and 1730 hours. All testing occurred between 700 and 1300 hours. All procedures were approved by Abbott Institutional Animal Care and Use Committee (USA) or Animal Welfare Officer (Germany) and were conducted in accordance with the National Institutes of Health Guide for Care and Use of Laboratory Animals guidelines and applicable national laws in the facilities accredited by the Association for the Assessment and Accreditation of Laboratory Animal Care. Methods Wistar rats are exposed to a conditioned stimulus CS (a 2.9-kHz tone of 10 second duration), which is a signal for the animal that it must move into the other chamber in order to avoid an immediately ensuing footshock US (0.5 mA, 10 second, tone continues during shock presentation). Once the shock has begun, the animal can still escape it by moving to the other chamber. Each session is limited to a maximum of 40 trials (intertrial interval 10-90 seconds). The animals generally learn quickly to change chambers upon the conditioned stimulus and thus avoid further shocks. Scored are: • Avoided responses=crossings into other compartment within 10 seconds of tone presentation; • Escaped responses=crossings between 10-20 seconds of tone presentation; • Failures=crossings after cessation of tone-shock presentation or no crossing. […] At the test sessions (=CS-shock pairings), animals are pre-treated with a test drug or vehicle 30 minutes before commencement of the session.

5HT2C receptors [5] = target: T4, 5HT2C receptors; assay: Human 5-HT2C functional high throughput screening assay in CHO-K1 cells (calcium flux); format: cell-based; set-up: expressed in transfected cells; host or cells: CHO-K1 cells
Method in brief: as §1

Ki [1] [µM]	Ki (h-5-HT6 receptor) [µM]	Ki (5-HT6 receptor) [µM]	EC50 (5HT2C receptors [2]) [µM]	EC50 (5HT2B receptors; 5-HT2B agonist activity, CHO-K1 cells, calcium flux, read-out: EC50) [µM]	Emax (5HT2B receptors; 5-HT2B, maximum functional response as percentage relative to the effect of serotonin)	EC50 (5HT2C receptors [5]; 5-HT2C agonist activity, CHO-K1 cells, calcium flux, read-out: EC50) [µM]	Emax (5HT2C receptors [5]; CHO-K1, 5-HT2C, maximum functional response as percentage relative to the effect of serotonin, read-out: Emax) [%]	Structure (SMILES)	AMP-induced hyperactivity [3]	conditioned avoidance behavior (avoided responses) ([4]; acute, 30 minutes before session)	number of failures ([4]; indicator of sedation or extrapyramidal side effects)
0.093	0.0403	0.028	> 1					O=S(=O)(c1cccc(F)c1)N1Cc2ccccc2[C@@H]2CN(Cc3ccccc3)C[C@H]2C1 (relative stereo) [Example 8, Trans-2-benzyl-5-(3-fluorophenylsulfonyl)-1,2,3,3a,4,5,6,10b-octahydrobenzo[c]pyrrolo[3,4-e]azepine]			
	0.207	0.275						O=C1NCc2ccccc2[C@@H]2CN(S(=O)(=O)c3cccc(Cl)c3Cl)C[C@@H]12 (relative stereo) [Example 39, Trans-2-(2,3-dichlorophenylsulfonyl)-1,2,3,3a,5,6-hexahydrobenzo[c]pyrrolo[3,4-e]azepin-4(10bH)-one]			
				> 10	inactive	0.0006	> 120	COc1ccc(-c2ccc3c(c2)C(=O)NC[C@H]2CN(C)C[C@H]32)cc1 [Example 158, (3aS,10bS)-8-(4-Methoxyphenyl)-2-methyl-1,2,3,3a,4,5-hexahydrobenzo[e]pyrrolo[3,4-c]azepin-6(10bH)-one]	attenuated AMP-induced hyperactivity in mice significantly and in a dose dependent manner; also recorded: attenuating the affect of d-amphetamine (AMP)	significantly suppressed conditioned avoidance behavior	without affecting the number of failures
